Values of other authors as cited in patent US8916612B2, “Agmatine containing dietary supplements, nutraceuticals, and foods” (priority 2008, dated 2014).

Tested on: mice, rats, dogs, calves and monkeys
Conditions: variable dose ranges and regimens; cited from earlier work

In the case of N=C(N)NCCCCN [agmatine], the “Toxic effects during or after oral intake” value is listed as “No toxic effects”.
